Source: US5786348A, “Methods for preparation and use of 1α,24(S)-dihydroxy vitamin D2” (priority 1995, dated 1998)
Like-named read-outs stand apart in the source and are kept apart here. One block for each compound: values may come before it.

How the values were obtained:
vitamin D receptor (VDR) = biological target: T1, vitamin D receptor (VDR) (Homo sapiens, UniProt P11473); experiment: Vitamin D-dependent transcriptional activation: growth hormone production in COS-1 cells co-transfected with VDR plasmid and VDRE-GH reporter; assay type: cell-based; conditions: for Total GH Production: averages of duplicate determinations
T1 sequence (P11473 1-427): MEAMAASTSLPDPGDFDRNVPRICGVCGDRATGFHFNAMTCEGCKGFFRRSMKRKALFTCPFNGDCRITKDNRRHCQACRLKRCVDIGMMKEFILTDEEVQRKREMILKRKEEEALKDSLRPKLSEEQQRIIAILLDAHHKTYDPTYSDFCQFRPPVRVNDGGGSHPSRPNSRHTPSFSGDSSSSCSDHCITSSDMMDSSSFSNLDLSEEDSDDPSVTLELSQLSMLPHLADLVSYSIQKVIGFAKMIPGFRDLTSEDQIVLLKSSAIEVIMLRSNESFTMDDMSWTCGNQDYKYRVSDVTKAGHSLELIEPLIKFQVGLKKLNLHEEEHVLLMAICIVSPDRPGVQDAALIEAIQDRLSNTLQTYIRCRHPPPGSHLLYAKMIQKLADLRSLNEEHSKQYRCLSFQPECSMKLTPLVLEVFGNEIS
Experimental: The biological activity in vitro of chemically synthesized 1α,24(S)-(OH)2 D2 and 1α,24(R)-(OH)2 D2 was measured using a vitamin D-dependent transcriptional activation model system in which a vitamin D receptor (VDR)-expressing plasmid pSG5-hVDR1/3and a plasmid p(CT4)^4 TKGH containing a Growth Hormone (GH)-gene, under the control of a vitamin D-responsive element (VDRE) were co-transfected into Green monkey kidney, COS-1 cells. DNA's for these two vectors were supplied by Dr. Mark Haussler, Department of Biochemistry, University of Arizona, Tucson, Ariz.
Transfected cells were incubated with vitamin D metabolites and growth hormone production was measured.

[1] = tested on: 1,25-(OH)2 D3 receptor site; conditions: Ishizuka et al., Steroids 1981, 1982; cited from earlier work
bovine thymus VDR = biological target: T2, bovine thymus VDR (Bos taurus, UniProt Q28037); experiment: Radioreceptor assay with bovine thymus VDR (Incstar), displacement of 3H-1α,25-(OH)2 D3; assay type: binding; conditions: bovine thymus VDR radioreceptor assay; read-out: Half-maximal binding (converted)
T2 construct: commercially available kit of bovine thymus VDR; purchased Incstar (Stillwater, Minn.); host or cells: bovine thymus
T2 sequence (Q28037 1-426): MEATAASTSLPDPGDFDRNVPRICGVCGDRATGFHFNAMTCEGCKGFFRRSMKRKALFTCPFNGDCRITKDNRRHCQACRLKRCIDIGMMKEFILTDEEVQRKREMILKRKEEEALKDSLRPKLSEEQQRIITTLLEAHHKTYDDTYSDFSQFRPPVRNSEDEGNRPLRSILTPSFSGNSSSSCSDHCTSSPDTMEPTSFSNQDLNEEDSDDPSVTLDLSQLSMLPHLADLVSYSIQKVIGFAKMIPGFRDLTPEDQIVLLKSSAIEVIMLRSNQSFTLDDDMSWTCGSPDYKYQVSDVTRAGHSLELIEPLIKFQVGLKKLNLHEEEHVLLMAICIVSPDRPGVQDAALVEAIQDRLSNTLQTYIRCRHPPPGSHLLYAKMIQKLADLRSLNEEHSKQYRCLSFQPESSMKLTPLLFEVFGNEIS
Text: Purified 1α,24(S)-(OH)2 D2 was quantitated by photodiode array spectrophotometry and assayed in the radioreceptor assay.
The purified 1α,24(R)-(OH)2 D2 and 1α,24(S)-(OH)2 D2 epimers were quantitated by ultraviolet spectroscopy. The concentration of 1α,24(R)-(OH)2 D2 required to produce the same displacement of ^3 H-1α,25-(OH)2 D3 tracer from the receptor was 20 to 30 times that required for 1α,24(S)-(OH)2 D2, as shown in FIG. 4.

[2] = human, in vivo; cited from earlier work
[3] = Blood metabolite levels in osteoporotic women given 1α-OH-D2; assay type: in vivo, human; conditions: one day after a single 2 μg dose
Experimental: An increase in the production of 1α,24(S)-(OH)2 D2 relative to 1α,25-(OH)2 D2 has also been observed by the present inventors in human females who received 1α-OH-D2 as part of an investigation of that drug for the treatment of osteoporosis. Following either a single dose of 2 μg of 1α-OH-D2 or daily doses of 8 μg/day for one week, blood was collected and analyzed for the metabolites 1α,24(S)-(OH)2 D2 and 1α,25-(OH)2 D2. Lipid was extracted from the blood, and the metabolites were purified by HPLC using standard methods and quantified with the radioreceptor assay produced by Incstar (Stillwater, Minn.). One day after a single 2 μg dose, the level of 1α,24(S)-(OH)2 D2 was undetectable with the 1α,25-(OH)2 D2 level being approximately 11 pg/ml. In contrast, one day following the last dose of 8 μg, the level of 1α,24(S)-(OH)2 D2 averaged 9 pg/ml with the 1α,25-(OH)2 D2 level averaging 30 pg/ml.

Hep 3B cells = experiment: Metabolism of 1α-OH-D2 in Hep 3B human hepatoma cells at rising substrate concentration; assay type: in vitro ADME; conditions: Experiment 2, photodiode array spectrophotometry
Experimental: Substantially pure 1α-(OH)D2 was obtained from Bone Care International, Inc. of Madison, Wis. The 1α-(OH)D2 was cultured for 48 hours with cells derived from a human hepatoma, Hep 3B, in medium devoid of fetal calf serum using known methods in the art.
Lipid extracts of the combined medium and cells were generated by known methods in the art and were subjected to high pressure liquid chromatography (HPLC) on Zorbax-S1L developed with hexane/isopropanol/methanol (91:7:2). The putative 1α,24(?)-(OH)2 D2 metabolite eluted between the parent 1α-(OH)D2 and standard 1α,25-(OH)2 D2 (also obtained from Bone Care International, Inc. of Madison, Wis.). (As used herein, the term "1α,24(?)-(OH)2 D2 " is meant to indicate that the epimeric form has not been identified.) The 1α,24(?)-(OH)2 D2 was further purified by this HPLC system before the metabolite's identification was undertaken using mass spectrometry analysis.
Hep 3B cells were incubated with 1α-OH-D2, as described above, at final concentrations of 1, 10, or 100 nM (Experiment 1), and 1 or 10 μM (Experiment 2) and 1α,24(S)-(OH)2 D2 was extracted and purified. The 1α,24(S)-(OH)2 D2 and 1α,25-(OH)2 D2 metabolites were quantitated by recovered radiolabel (Experiment 1) or by photodiode array spectrophotometry (Experiment 2).

[4] = assay type: in vivo, rat
Experimental: Vitamin D2 or 24-OH-D2 was administered (either oral or intraperitoneal supplementation) to vitamin D-deficient rats. Lipid extracts of the plasma were prepared and the metabolites purified by the method of Horst et al. (Horst, R. L., Koszewski, N. J. and Reinhardt, T. A., Biochem., 29:578-82 (1990)) described below for synthesyzing standard biological 1α,24-(OH)2 D2.
Standard biological 1α,24-(OH)2 D2 was synthesized in vitro from 24-OH-D2 by incubating 10 μg of 24-OH-D2 in flask containing 5 ml of 20% kidney homogenates made from vitamin D-deficient chicks. The product of this reaction was isolated by HPLC and identified by mass spectrometry.

[5] = inducer molar concentration 10^-7
[6] = inducer molar concentration 10^-8
[7] = inducer molar concentration 10^-9
[8] = inducer molar concentration 10^-5
[9] = inducer molar concentration 10^-6

Net vitamin D-inducible GH-production (vitamin D receptor (VDR); [5]): 1256 ng/mL
Total GH Production (vitamin D receptor (VDR); [5]): 1300 ng/mL
Net vitamin D-inducible GH-production (vitamin D receptor (VDR); [6]): 1056 ng/mL
Total GH Production (vitamin D receptor (VDR); [6]): 1100 ng/mL
Net vitamin D-inducible GH-production (vitamin D receptor (VDR); [7]): 36 ng/mL
Total GH Production (vitamin D receptor (VDR); [7]): 80 ng/mL
Compound: C=C1/C(=C\C=C2/CCC[C@]3(C)[C@@H]([C@H](C)/C=C/[C@](C)(O)C(C)C)CC[C@@H]23)C[C@@H](O)C[C@@H]1O [1α,24(R)-(OH)2 D2, 1α,24(R)-dihydroxy vitamin D2]

Compound: C=C1/C(=C\C=C2/CCC[C@]3(C)[C@@H]([C@H](C)CC[C@@H](O)C(C)C)CC[C@@H]23)C[C@@H](O)C[C@@H]1O [1α,24(R)-(OH)2 D3, 1α,24(R)-dihydroxyvitamin D3]
Binding of the 1,25-(OH)2 D3 receptor site relative to 1,25-(OH)2 D3 [1]: more tightly

IC50 (bovine thymus VDR): 0.187 nM
Compound: C=C1/C(=C\C=C2/CCC[C@]3(C)[C@@H]([C@H](C)/C=C/[C@H](C)C(C)(C)O)CC[C@@H]23)C[C@@H](O)C[C@@H]1O [1α,25-(OH)2D2, 1α,25-dihydroxy vitamin D2, reference compound]

Compound: C=C1/C(=C\C=C2/CCC[C@]3(C)[C@@H]([C@H](C)CCCC(C)C)CC[C@@H]23)C[C@@H](O)C[C@@H]1O [1α-(OH)D3, 1α-hydroxy vitamin D3]
Safety of dosage levels of 2.0 μg/day or greater [2]: not safely obtained

Blood level of metabolite 1α,24(S)-(OH)2 D2 [3]: undetectable
Rate of Production of 1α,24(S)-(OH)2 D2 (Hep 3B cells; substrate concentration 1 μM): 4.9 pmol per 10^6 cells/day
Rate of Production of 1α,24(S)-(OH)2 D2 (Hep 3B cells; substrate concentration 10 μM): 59 pmol per 10^6 cells/day
Rate of Production of 1α,25-(OH)2 D2 (Hep 3B cells; substrate concentration 10 μM): 7.4 pmol per 10^6 cells/day
Compound: C=C1/C(=C\C=C2/CCC[C@]3(C)[C@@H]([C@H](C)/C=C/[C@H](C)C(C)C)CC[C@@H]23)C[C@@H](O)C[C@@H]1O [1α-OH-D2, 1α-hydroxy vitamin D2]

Compound: C=C1CC[C@H](O)C/C1=C/C=C1\CCC[C@]2(C)[C@@H]([C@H](C)/C=C/C(C)(O)C(C)C)CC[C@@H]12 (stereo partly shown) [24-OH-D2, 24-hydroxyvitamin D2]
Metabolite isolated from plasma lipid extracts ([4]; rat, in vivo): co-migrated on HPLC with the standard 1α,24-(OH)2 D2

Net vitamin D-inducible GH-production (vitamin D receptor (VDR); [8]): 731 ng/mL
Total GH Production (vitamin D receptor (VDR); [8]): 775 ng/mL
Net vitamin D-inducible GH-production (vitamin D receptor (VDR); [9]): 1056 ng/mL
Total GH Production (vitamin D receptor (VDR); [9]): 1100 ng/mL
Net vitamin D-inducible GH-production (vitamin D receptor (VDR); [5]): 201 ng/mL
Total GH Production (vitamin D receptor (VDR); [5]): 245 ng/mL
Compound: C=C1CC[C@H](O)C/C1=C/C=C1\CCC[C@]2(C)[C@@H]([C@H](C)CCCC(C)(C)O)CC[C@@H]12 [25-OH-D3, 25-hydroxy vitamin D3, reference compound]

Compound: C=C1CC[C@H](O)C/C1=C/C=C1\CCC[C@]2(C)[C@@H]([C@H](C)/C=C/[C@H](C)C(C)C)CC[C@@H]12 [vitamin D2, Vitamin D2]
Metabolite isolated from plasma lipid extracts ([4]; vitamin D-deficient rats, HPLC against standard biological 1α,24-(OH)2 D2): co-migrated on HPLC with the standard 1α,24-(OH)2 D2

Compound: C=C1CC[C@H](O)C/C1=C/C=C1\CCC[C@]2(C)[C@@H]([C@H](C)CCCC(C)C)CC[C@@H]12 [vitamin D3]
24-OH-D3 in plasma ([4]; comparable vitamin D-deficient rats): no detectable
